Measured values from ChEMBL document CHEMBL4665792 (J Med Chem, 2020).
Activity calls are given as the source filed them. The calls are words filed in the database; no cut-off is given here.

Columns and labels:
Rattus norvegicus [1] = organism: Rattus norvegicus; test: Binding affinity to rat liver TrxR assessed as RSGGDILQSGCUG-adduct formation by measuring retention time at 10 uM incubated for 1.5 hrs by LC-MS/MS analysis
HT-29 [2] = test: Inhibition of TrxR in human HT29 cells assessed as decrease in ASK1 to phosphorylated ASK1 expression ratio at 0.25 to 1 uM incubated for 24 hrs by Western blot analysis; assay type: cell-based
[3] = Inhibition of Escherichia coli Trx incubated for 1.5 hrs in presence of DTT and insulin
[4] = Inhibition of TrxR (unknown origin) in presence of NADPH by Ellman's method; set-up: species or system Homo sapiens
[5] = Selectivity index, ratio IC50 for human HK2 cells to IC50 for human HT-29 cells
HT-29 [6] = test: Inhibition of TrxR in human HT-29 cells incubated for 24 hrs in presence of insulin, NADPH and Trx by DTNB reagent based assay; assay type: cell-based
HT-29 [7] = test: Inhibition of TrxR in human HT29 cells assessed as increase in p53 to GAPDH expression ratio at 0.25 to 1 uM incubated for 24 hrs by Western blot analysis; assay type: cell-based
HT-29 [8] = test: Induction of apoptosis in human HT-29 cells assessed as cell death at 0.25 to 1 uM incubated for 24 hrs by Annexin V-FITC/propidium iodide staining based flow cytometry; assay type: functional
HT-29 [9] = test: Inhibition of TrxR in human HT-29 cells assessed as increase in production of intracellular ROS incubated for 24 hrs by DCFH-DA staining-based flow cytometric analysis; assay type: cell-based
HCT-116 [10] = test: Inhibition of TrxR in human HCT-116 cells assessed as increase in production of intracellular ROS incubated for 24 hrs by DCFH-DA staining-based flow cytometric analysis; assay type: cell-based
HT-29 [11] = test: Induction of apoptosis in human HT-29 cells assessed as increase in expression of Bax at 0.25 to 1 uM treated for 24 hrs by Western blot analysis; assay type: functional, cell-based
HK-2 = test: Cytotoxicity against human HK2 cells assessed as cell viability incubated for 24 hrs by MTT assay; assay type: cell-based; conditions: HK-2, 24 h
[12] = target: T1, Thioredoxin (Homo sapiens) (UniProt P10599); test: Inhibition of Trx in human HT-29 cells incubated for 24 hrs in presence of insulin, NADPH and DTT; assay type: cell-based
T1 sequence (whole entry): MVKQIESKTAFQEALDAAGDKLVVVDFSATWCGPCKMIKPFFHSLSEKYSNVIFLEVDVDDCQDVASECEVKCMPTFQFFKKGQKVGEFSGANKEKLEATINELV

L02 = test: Cytotoxicity against human L02 cells assessed as cell viability incubated for 24 hrs by MTT assay; assay type: cell-based; conditions: L02, 24 h
Homo sapiens = organism: Homo sapiens; test: Inhibition of TrxR (unknown origin) at 5 uM in presence of NADPH by Ellman's method
[13] = Inhibition of TrxR in human HT-29 cells incubated for 60 mins in presence of insulin, NADPH and Trx by DTNB reagent based assay; assay type: cell-based
HT-29 [14] = test: Binding affinity to sulfhydryl group in human HT-29 cells assessed as decrease in total content of sulfhydryl groups; assay type: cell-based
HT-29 [15] = test: Induction of apoptosis in human HT-29 cells assessed as decrease in expression of Bcl-2 at 0.25 to 1 uM treated for 24 hrs by Western blot analysis; assay type: functional, cell-based
[16] = Inhibition of TrxR in human HT-29 cells incubated for 30 mins in presence of insulin, NADPH and Trx by DTNB reagent based assay; assay type: cell-based
HT-29 [17] = test: Induction of mitochondrial membrane potential loss in human HT-29 cells assessed as decrease in red to green fluorescence intensity ratio at 0.125 to 1 uM incubated for 24 hrs by JC-1 dye based fluorescence spectrophotometric analysis; assay type: functional, cell-based; conditions: dose microM 0.125-1, time 24.0 hrs
HT-29 [18] = test: Induction of apoptosis in human HT-29 cells assessed as increase in expression of cleaved PARP at 0.25 to 1 uM treated for 24 hrs by Western blot analysis; assay type: functional, cell-based
HT-29 [19] = test: Induction of apoptosis in human HT-29 cells assessed as increase in expression of cleaved caspase-3 at 0.25 to 1 uM treated for 24 hrs by western blot analysis; assay type: functional, cell-based
[20] = Selectivity index, ratio IC50 for human L02 cells to IC50 for human HT-29 cells; assay type: toxicity; conditions: L02 cells versus HT-29 cells, read-out: Ratio IC50
MCF7 = test: Antiproliferative activity against human MCF7 cells assessed as reduction in cell viability incubated for 24 hrs by MTT assay; assay type: functional, cell-based; conditions: MCF7, 24 h
Rattus norvegicus [21] = organism: Rattus norvegicus; test: Binding affinity to rat liver TrxR assessed as SGGDILQSGCUG-adduct formation by measuring retention time at 10 uM incubated for 1.5 hrs by LC-MS/MS analysis
HT-29 [22] = test: Cell cycle arrest in human HT-29 cells assessed as accumulation at G2/M phase incubated for 24 hrs by propidium iodide staining based flow cytometry; assay type: functional; conditions: dose microM 0.125-0.5, time 24.0 hrs
[23] = Binding affinity to DTT assessed as sulfhydryl group-adduct formation at 5 mg incubated for 1.5 hrs by LC-MS/MS analysis
HCT-116 [24] = test: Antiproliferative activity against human HCT-116 cells assessed as reduction in cell viability incubated for 24 hrs by MTT assay; assay type: functional, cell-based; conditions: HCT-116, 24 h
HT-29 [25] = test: Down regulation of TrxR expression in human HT29 cells at 0.25 to 1 uM incubated for 24 hrs by Western blot analysis; assay type: functional, cell-based
[26] = Binding affinity to NAC assessed as sulfhydryl group-adduct formation at 5 mg incubated for 1.5 hrs by LC-MS/MS analysis
HT-29 [27] = test: Potency index, ratio of Withangulatin A IC50 to test compound IC50 for antiproliferative activity against human HT-29 cells assessed as reduction in cell viability; assay type: functional
HT-29 [28] = test: Inhibition of GPx in human HT-29 cells incubated for 24 hrs in presence of GSH, NADPH and GR measured at 10 secs interval for 4 mins; assay type: cell-based; conditions: time 1444.0 min
HT-29 [29] = test: Antiproliferation activity against human HT-29 cells assessed as reduction in monoclonal ability incubated for 24 hrs followed by fresh medium supplementation every 2 to 3 days for 14 days by crystal violet staining based analysis; assay type: functional, cell-based; conditions: dose microM 0.015-0.06, time 24.0 hrs
[30] = Inhibition of TrxR in human HT-29 cells incubated for 90 mins in presence of insulin, NADPH and Trx by DTNB reagent based assay; assay type: cell-based
HT-29 [31] = test: Antiproliferation activity against human HT-29 cells assessed as decrease in number of EdU-positive cells at 0.125 to 0.5 uM incubated for 20 hrs followed by addition of EdU-labelling agent measured after 8 hrs by Hoechst-33258 staining based analysis; assay type: functional, cell-based; conditions: dose microM 0.125-0.500, time 28.0 hrs
HT-29 [32] = test: Down regulation of Trx expression in human HT29 cells at 0.25 to 1 uM incubated for 24 hrs by Western blot analysis; assay type: functional, cell-based
HT-29 [33] = test: Antiproliferative activity against human HT-29 cells assessed as reduction in cell viability incubated for 24 hrs by MTT assay; assay type: functional, cell-based; conditions: HT-29, 24 h
[34] = Covalent inhibition of TrxR (unknown origin) assessed as covalent bond formation incubated up to 30 mins in presence of NADPH by Ellman's method; set-up: species or system Homo sapiens
[35] = Binding affinity to NAC assessed as sulfhydryl group-adduct formation at 5 mg by online NMR analysis
[36] = target: T2, Glutathione reductase, mitochondrial (Homo sapiens) (UniProt P00390); test: Inhibition of GR in human HT-29 cells incubated for 24 hrs in presence of GSSG and NADPH; assay type: cell-based
T2 sequence (whole entry): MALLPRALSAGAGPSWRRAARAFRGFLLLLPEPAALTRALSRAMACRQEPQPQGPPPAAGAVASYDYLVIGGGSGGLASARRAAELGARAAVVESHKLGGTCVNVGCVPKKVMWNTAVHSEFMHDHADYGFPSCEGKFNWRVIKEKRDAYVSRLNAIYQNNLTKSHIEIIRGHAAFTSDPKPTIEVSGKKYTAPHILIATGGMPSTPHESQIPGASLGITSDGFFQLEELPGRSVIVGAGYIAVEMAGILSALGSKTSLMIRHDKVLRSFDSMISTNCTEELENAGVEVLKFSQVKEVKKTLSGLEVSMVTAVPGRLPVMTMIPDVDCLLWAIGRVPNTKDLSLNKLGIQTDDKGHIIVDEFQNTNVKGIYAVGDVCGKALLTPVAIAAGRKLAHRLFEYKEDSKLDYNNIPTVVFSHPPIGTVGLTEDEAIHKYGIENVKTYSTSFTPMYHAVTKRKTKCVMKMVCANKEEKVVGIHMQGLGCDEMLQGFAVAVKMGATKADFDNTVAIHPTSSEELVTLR

HepG2 = test: Antiproliferative activity against human HepG2 cells assessed as reduction in cell viability incubated for 24 hrs by MTT assay; assay type: functional, cell-based; conditions: HepG2, 24 h

Retention time (Rattus norvegicus [1]): 33.9 min | IC50 [3]: > 2500 nM | IC50 [4]: 850 nM | inhibition [12]: Active | inhibition (Homo sapiens): Active | IC50 [13]: 870 nM | IC50 [16]: 970 nM | IC50 (MCF7): 330 nM | Retention time (Rattus norvegicus [21]): 31.7 min | Activity [23]: Active | IC50 (HCT-116 [24]): 130 nM | Activity [26]: Active | IC50 [30]: 850 nM | IC50 (HT-29 [33]): 80 nM | Ki [34]: 932 nM | Activity [35]: Active | inhibition [36]: Active | IC50 (HepG2): 110 nM
SMILES: CC(=O)O[C@H]1C=C([C@H](C)[C@H]2CC(C)=C(C)C(=O)O2)[C@@]2(C)CC[C@H]3[C@@H](C[C@H]4O[C@]45[C@@H](OC(=O)/C=C/C(=O)N(C)C)C=CC(=O)[C@]35C)[C@]12O
inhibition (HT-29 [2]): Active | Ratio IC50 [5]: 56 | inhibition (HT-29 [6]): Active | inhibition (HT-29 [7]): Active | Activity (HT-29 [8]): Active | inhibition (HT-29 [9]): Dose-dependent effect | inhibition (HCT-116 [10]): Dose-dependent effect | Activity (HT-29 [11]): Active | IC50 (HK-2): 4530 nM | IC50 (L02): 5250 nM | Activity (HT-29 [14]): Active | Activity (HT-29 [15]): Active | Activity (HT-29 [17]): Active | Activity (HT-29 [18]): Active | Activity (HT-29 [19]): Active | selectivity ratio [20]: 66 | Activity (HT-29 [22]): Dose-dependent effect | Activity (HT-29 [25]): Active | Ratio IC50 (HT-29 [27]): 30 | inhibition (HT-29 [28]): Active | Activity (HT-29 [29]): Dose-dependent effect | Activity (HT-29 [31]): Active | Activity (HT-29 [32]): Active
